The record followed here is ChEMBL document CHEMBL1156829 (Proc Natl Acad Sci U S A, 2008).

By EC50 is commonly meant the midpoint of the concentration-response curve. By CC50 is commonly meant the concentration at which the toxic effect on the cells reaches its halfway point. High values mean lower toxicity to the cells, low ones greater toxicity to the cells.

Values joined by “and” are separate entries in the source; they are usually repeats but may differ in a detail not shown here. Identical values can stand only once.

The test system of data set [1] is Plasmodium falciparum. The experiment in a line: NOVARTIS: Inhibition of Plasmodium falciparum W2 (drug-resistant) proliferation in erythrocyte-based infection assay. It counts as functional, organism-based. The following applies: read-out: EC50.
For data set [2], the system named is Plasmodium falciparum. Nature of the data set: NOVARTIS: Inhibition of Plasmodium falciparum 3D7 (drug-susceptible) proliferation in erythrocyte-based infection assay. The data set is classed as functional, organism-based.
Data set [3] in a line: NOVARTIS: Cytotoxicity against human hepatocellular carcinoma cell line (Huh7). The following applies: Huh7 cells (hepatocellular carcinoma cell line). It counts as toxicity, cell-based, Huh-7.

With `Cc1ccc(N=C(Nc2ccc(C)cc2)Nc2ccccc2O)cc1`, the EC50 in the data set with Plasmodium falciparum [1] (Plasmodium falciparum, W2) was 231 nM; with Plasmodium falciparum [2] (Plasmodium falciparum, 3D7), 1530 nM.
For `COc1ccc(-c2csc(NC(=O)COc3ccccc3Cl)n2)cc1Br`, the EC50 is 286 nM in the data set on Plasmodium falciparum [1] (Plasmodium falciparum, W2) and 1640 nM in the data set on Plasmodium falciparum [2] (Plasmodium falciparum, 3D7).
Consider `COc1ccc(-c2cc(C(F)(F)F)n3ncc(C(=O)NCc4ccccc4)c3n2)cc1`, for which the EC50 with Plasmodium falciparum [1] (Plasmodium falciparum, W2) was 1540 nM; in the data set on Plasmodium falciparum [2] (Plasmodium falciparum, 3D7), over 1250 nM.
As to `CC[n+]1cc(C)ccc1C=Cc1ccc(N(C)C)cc1`, the EC50 with Plasmodium falciparum [1] (Plasmodium falciparum, W2) stood at 386 nM; in the data set on Plasmodium falciparum [2] it was 521 nM.
With `CCOC(=O)c1c(-c2ccc3c(c2)OCO3)[nH]c2cc(OC)ccc2c1=O`, the EC50 was found to be 180 nM in the data set on Plasmodium falciparum [1] (Plasmodium falciparum, W2) and 127 nM with Plasmodium falciparum [2] (Plasmodium falciparum, 3D7).
In the case of `CCCCOc1cccc(NC(=O)CSC2=C(C#N)C(c3ccccc3)C(C(=O)Nc3ccccc3)=C(C)N2)c1` (configuration not stated), the EC50 in the data set on Plasmodium falciparum [1] (Plasmodium falciparum, W2) was found to be 479 nM; in the data set on Plasmodium falciparum [2] (Plasmodium falciparum, 3D7), 507 nM.
The corresponding values for `C=CC1CN2CCC1CC2[C@@H](OC(=O)c1cc([N+](=O)[O-])cc([N+](=O)[O-])c1)c1ccnc2ccc(OC)cc12` (some centres not stated) are 1610 nM and 1300 nM.
The corresponding values for `O=C(Nc1cccc(-c2csc(-c3ccccc3)n2)c1)c1cccs1` are 672 nM and 1240 nM.
Consider `Cc1ccnc(Nc2nc(-c3ccccn3)cs2)c1`, for which the EC50 was found to be 46.3 nM with Plasmodium falciparum [1] (Plasmodium falciparum, W2) and 113 nM in the data set with Plasmodium falciparum [2] (Plasmodium falciparum, 3D7).
Regarding `CN1/C(=C/C=C/c2oc3ccccc3[n+]2C)Oc2ccccc21`, the EC50 in the data set with Plasmodium falciparum [2] came out at 182 nM; in the data set with Plasmodium falciparum [2] (Plasmodium falciparum, 3D7), 161 nM.
As for `Cc1ccc(C=Cc2ccc(N(C)C)cc2)[n+](C)c1`, the EC50 worked out at 914 nM in the data set with Plasmodium falciparum [1] and 1160 nM with Plasmodium falciparum [2].
Regarding `COc1cc2c(cc1OC)C1=NNC(=O)C1=NC(C)(C)C2`, the EC50 in the data set with Plasmodium falciparum [1] (Plasmodium falciparum, W2) was 793 nM; in the data set with Plasmodium falciparum [2] (Plasmodium falciparum, 3D7), over 1580 nM.
In the case of `CCOC(=O)C1=C(C)NC(=Cc2cc(C)n(-c3ccccc3C(F)(F)F)c2C)C1=O`, the EC50 in the data set on Plasmodium falciparum [1] (Plasmodium falciparum, W2) came to 11.7 nM; with Plasmodium falciparum [2] (Plasmodium falciparum, 3D7) it was 13.8 nM.
For the compound `CN1/C(=C\C=C\C2=[N+](C)c3ccc4ccccc4c3C2(C)C)C(C)(C)c2ccccc21`, the EC50 was 1020 nM with Plasmodium falciparum [1] (Plasmodium falciparum, W2) and 1640 nM in the data set with Plasmodium falciparum [2] (Plasmodium falciparum, 3D7).
Take `O=C1C(N2CCCCC2)=C(N2CCOCC2)C(=O)c2ccccc21`: the EC50 in the data set with Plasmodium falciparum [1] (Plasmodium falciparum, W2) is over 1460 nM; in the data set with Plasmodium falciparum [2] (Plasmodium falciparum, 3D7), 1240 nM.
In the case of `CCN1/C(=C\c2sc3ccc(O)cc3[n+]2CC)C=Cc2ccccc21`, the EC50 in the data set with Plasmodium falciparum [1] (Plasmodium falciparum, W2) amounted to 701 nM; in the data set on Plasmodium falciparum [2] (Plasmodium falciparum, 3D7), 582 nM.
The corresponding values for `Oc1ccc(C(CCNCCc2c[nH]c3ccccc23)c2ccccc2)cc1` (configuration not stated) are 474 nM and over 997 nM.
With `CCOC(=O)C1=C(C)N/C(=C/c2cc(C)n(-c3ccccc3C(F)(F)F)c2C)C1=O`, the EC50 in the data set with Plasmodium falciparum [1] (Plasmodium falciparum, W2) turned out to be 628 nM; in the data set on Plasmodium falciparum [2] (Plasmodium falciparum, 3D7), 471 nM.
Turning to `CC(C)CN1C(=O)c2ccccc2C(C(=O)NC2CCCCC2)C1c1cccs1` (configuration not stated), in data set [3], the CC50 is over 100000 nM.
For `COc1ccc2ccccc2c1C1NC(SCc2ccc(F)cc2)=NC(C)=C1C(C)=O` (configuration not stated), the EC50 in the data set on Plasmodium falciparum [1] (Plasmodium falciparum, W2) was 702 nM; with Plasmodium falciparum [2] (Plasmodium falciparum, 3D7), over 1610 nM.
In the case of `O=C1CCC(=O)N1c1ccc(CSc2nc3ccccc3[nH]2)cc1`, the concentration giving a half-maximal response (EC50) is over 1250 nM in the data set with Plasmodium falciparum [1] (Plasmodium falciparum, W2) and over 281 nM with Plasmodium falciparum [2] (Plasmodium falciparum, 3D7).
Consider `CCCOc1ccc(C(=O)C2=C(O)C(=O)N(CCN3CCOCC3)C2c2ccc(F)cc2)c(C)c1` (configuration not stated), for which the EC50 with Plasmodium falciparum [1] (Plasmodium falciparum, W2) was over 896 nM; with Plasmodium falciparum [2] (Plasmodium falciparum, 3D7) it was over 1250 nM.
In the case of `CN(C)c1ccc(/C=C2\N=C(c3ccccc3F)OC2=O)cc1`, the EC50 was over 1210 nM in the data set on Plasmodium falciparum [1] (Plasmodium falciparum, W2) and over 1250 nM with Plasmodium falciparum [2] (Plasmodium falciparum, 3D7).
Take `Cc1ccc(NC(=O)c2cc3ccccc3oc2=O)nc1`: the EC50 is over 1250 nM in the data set with Plasmodium falciparum [1] (Plasmodium falciparum, W2) and over 1080 nM with Plasmodium falciparum [2] (Plasmodium falciparum, 3D7).
As for `Cc1cccc(NC(c2cccc(F)c2)c2ccc3cccnc3c2O)n1` (configuration not stated), the EC50 with Plasmodium falciparum [1] (Plasmodium falciparum, W2) was determined as 880 nM; with Plasmodium falciparum [2] (Plasmodium falciparum, 3D7), 1710 nM.
Turning to `COc1ccc(-c2nc(-c3ccc(-c4[nH]c(-c5ccc(OC)cc5)nc4-c4ccccc4)cc3)c(-c3ccccc3)[nH]2)cc1`, the EC50 with Plasmodium falciparum [1] (Plasmodium falciparum, W2) is over 1250 nM; in the data set on Plasmodium falciparum [2] (Plasmodium falciparum, 3D7), 1290 nM.
On the same counts, the results for `COc1cnc(-c2ccccn2)nc1N1CCCC1` are 648 nM and 489 nM.
For `COc1cc(C=NNc2nc3ccccc3[nH]2)cc(Br)c1O`, the EC50 with Plasmodium falciparum [1] (Plasmodium falciparum, W2) is over 1250 nM; in the data set on Plasmodium falciparum [2] (Plasmodium falciparum, 3D7), 1420 nM.
As to `CC1=NN(c2ccccc2)C(=O)C1=NNc1c(Br)cc(Br)cc1Br`, the EC50 in the data set on Plasmodium falciparum [1] (Plasmodium falciparum, W2) is over 1050 nM; in the data set on Plasmodium falciparum [2] (Plasmodium falciparum, 3D7), over 1250 nM.
In data set [3], `CCOC(=O)c1c(-c2ccc3c(c2)OCO3)[nH]c2cccc(OC)c2c1=O` yielded a CC50 of over 10000 nM.
For `N#CCSc1nc2c(sc(=S)n2-c2ccccc2)c(=O)n1Cc1ccco1`, the EC50 in the data set with Plasmodium falciparum [1] (Plasmodium falciparum, W2) is 715 nM; in the data set on Plasmodium falciparum [2] (Plasmodium falciparum, 3D7), over 1350 nM.
With `COc1ccc(OC)c(C=NNC(=O)Cc2cc(O)n[nH]2)c1`, the EC50 with Plasmodium falciparum [1] (Plasmodium falciparum, W2) was 1940 nM; in the data set on Plasmodium falciparum [2] (Plasmodium falciparum, 3D7), over 1250 nM.
As for `CCN(CC)c1ccc(/C=C/c2ccc3ccc(OC)cc3[n+]2CC)cc1`, in the data set on Plasmodium falciparum [2], the EC50 is 38.4 nM and 248 nM.
On to `Cc1ccc(NC(=O)C2C3C=CC4(O3)C2C(=O)N(CCCN2CCOCC2)C4C(=O)NC2CCCC(C)C2C)cc1Cl` (configuration not stated), for which the EC50 was over 117 nM in the data set on Plasmodium falciparum [1] (Plasmodium falciparum, W2) and over 1630 nM with Plasmodium falciparum [2] (Plasmodium falciparum, 3D7).
Turning to `CC1(C)Cc2nc3ccccc3c(NCc3ccc(Cl)cc3)c2C(O)C1` (configuration not stated), the EC50 is 2110 nM in the data set with Plasmodium falciparum [1] (Plasmodium falciparum, W2) and over 1250 nM in the data set on Plasmodium falciparum [2] (Plasmodium falciparum, 3D7).
